Reference: article PMC9551036, “A selective and orally bioavailable VHL-recruiting PROTAC achieves SMARCA2 degradation in vivo” (Nature Communications, 2022)
Several values for one entry are separate records, joined by “and”; a condition that tells them apart may be missing. Identical values can stand only once. Like-named read-outs stand apart in the source and are kept apart here.

Tests used:
SMARCA4^BD = target: T1, SMARCA4^BD (Homo sapiens, UniProt P51532); assay: SPR binding to immobilised SMARCA4 bromodomain
T1 construct: P51532, residues 1448–1569 with additional N-terminal SM residues; GST (TEV site) (N, cleaved yes); made in house; host or cells: Escherichia coli BL21(DE3); construct from SGC Toronto
T1 sequence (P51532 1448-1569): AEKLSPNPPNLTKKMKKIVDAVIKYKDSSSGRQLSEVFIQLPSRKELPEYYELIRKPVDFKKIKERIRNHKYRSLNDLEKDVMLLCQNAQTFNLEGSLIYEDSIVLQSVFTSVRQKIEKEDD
Method: SMARCA4^BD was provided by the Structural Genomics Consortium (SGC), Toronto[32] and SMARCA2^BD and PRM1^BD5 were synthesised by GeneArt then subcloned into pDEST15 vectors (Invitrogen). The VCB complex was expressed and purified as described previously, with the modification that 0.3 mM IPTG was used for induction of expression. […] Both were stored in 20 mM 4-(2-hydroxyethyl)−1-piperazineethanesulfonic acid (HEPES), 150 mM sodium chloride and 1 mM tris(2-carboxyethyl)phosphine (TCEP) pH 7.5. SMARCA2^BD, SMARCA4^BD and PBRM1^BD5 were expressed in Escherichia coli BL21(DE3) as N-terminal GST fusion proteins with a TEV protease cleavage site. Expression and purification of these proteins has been described previously[32],[33]. Starter cultures were grown overnight at 37 °C in 10 mL of Luria-Bertani (LB) medium with ampicillin (100 μg/mL). The starter cultures were diluted (1:100) in Terrific Broth (TB) medium with ampicillin (100 μg/mL) and grown in a shaking incubator at 37 °C to an optical density (OD600) ~1 before the temperature was lowered for induction (to 23 °C for SMARCA2^BD or 18 °C for SMARCA4^BD and PRRM1^BD5). […] Cells were harvested by centrifugation and stored at −80 °C prior to purification. Cells were resuspended in Lysis buffer and lysed by sonication (20 pulses of 5 s for 4 min) using a Sonopuls HD 3080 (Bandelin, Berlin, Germany) or by homogenisation using a Stansted Pressure Cell Homogeniser (Stansted Fluid Power). The Lysis buffers were as follows: for SMARCA2^BD: 50 mM HEPES, 500 mM sodium chloride, 5% glycerol, 5 mM dithiothreitol (DTT); for SMARCA4^BD: 25 mM HEPES, 0.3 M sodium chloride, 5% glycerol, 10 mM DTT, pH 7.5; for PBRM1^BD5: 25 mM HEPES, 300 mM sodium chloride, 5% glycerol, 10 mM DTT, pH 7.8; in each case supplemented with complete protease inhibitors (Roche). Affinity purification was performed using Glutathione Sepharose 4B (GE Healthcare) in batch mode or on-column. […] For SMARCA2^BD, prior to TEV protease cleavage the eluted GST-tagged BD was first dialysed into desalting buffer (20 mM HEPES, 250 mM sodium chloride, pH 7.0 + 0.5% glycerol). Where TEV cleavage was performed in solution, a second affinity (GST-trap) column purification step was carried out to remove the GST-tag and uncleaved GST-tagged protein. Proteins were further purified by SEC (HiLoad Superdex-75, 16/600) (GE Healthcare) and stored in Storage buffer (for SMARCA2^BD: 20 mM HEPES, 150 mM sodium chloride, pH 7.5; for SMARCA4^BD: 10 mM HEPES, 0.5 M NaCl, 5% glycerol, pH 7.5; for PBRM1^BD5: 20 mM HEPES, 300 mM NaCl, 5 mM DTT, pH 7.8). For AlphaScreen assays, eluted GST-tagged BDs were purified directly by SEC in the respective storage buffers without TEV cleavage. All chromatography purification steps were performed either at room temperature or 4 °C using an ÄKTA FPLC purification system (GE Healthcare) or a plastic Econo-Pac column (Bio-Rad).
SPR data were acquired on Biacore 8K or T200 instruments (Cytiva). Target proteins were immobilised at 25 °C on CM5 chips by amine coupling (EDC/NHS, Cytiva) in HBS-P+ running buffer (pH 7.4), containing 2 mM TCEP. After surface activation with EDC/NHS (contact time 420 s, flow rate 10 µl/min) SMARCA2^BD and SMARCA4^BD at 0.01–0.05 mg/ml in coupling buffer (10 mM Na-Acetate pH 6.5, 0.005% TWEEN 20 and 50 µM PFI-3[13]) were immobilised to a density of 100–5000 Response Units (RU). The reference surface was subsequently deactivated using 1 M ethanolamine. For VCB immobilisation, streptavidin (Sigma Aldrich, prepared at 1 mg/ml in 10 mM sodium acetate coupling buffer, pH 5.0) was immobilised by amine coupling to a density of 3000–5000 RU after which biotinylated VCB complex (0.125 mM in running buffer) was streptavidin-coupled to a density of 100–500 RU. Biotinylated VCB was prepared as previously described[27]: in brief, the complex was mixed 1:1 with EZ-Link NHS–PEG4–biotin (Thermo Scientific) and incubated at room temperature for 1 h.

[1] = target: VCB: PROTAC: SMARCA2^BD ternary complex (Homo sapiens, UniProt P40337+P51531); assay: TR-FRET ternary complex affinity and cooperativity, SMARCA2; type: binding; design: P51531-2, residues 1373-1493 with additional N-terminal SM residues; GST (TEV site) (N); His6 (TEV site) (N, cleaved yes); made in house; host or cells: SMARCA2^BD: Escherichia coli BL21(DE3)
Sequence of VCB: PROTAC: SMARCA2^BD ternary complex (P51531 with tags, fused parts or gaps isoform P51531-2): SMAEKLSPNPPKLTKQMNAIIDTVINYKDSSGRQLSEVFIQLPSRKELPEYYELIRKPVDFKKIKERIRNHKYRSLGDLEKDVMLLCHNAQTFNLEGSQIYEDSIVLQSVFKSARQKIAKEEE
Sequence of VCB: PROTAC: SMARCA2^BD ternary complex (P40337 54-213): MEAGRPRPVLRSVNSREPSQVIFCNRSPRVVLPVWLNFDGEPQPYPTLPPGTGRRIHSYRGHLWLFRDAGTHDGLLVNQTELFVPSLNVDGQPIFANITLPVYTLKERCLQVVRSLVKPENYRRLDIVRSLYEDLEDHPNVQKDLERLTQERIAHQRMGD
Sequence of VCB: PROTAC: SMARCA2^BD ternary complex (Q15369 17-112 partner): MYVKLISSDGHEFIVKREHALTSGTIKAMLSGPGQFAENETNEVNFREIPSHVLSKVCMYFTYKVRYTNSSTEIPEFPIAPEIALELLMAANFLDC
Sequence of VCB: PROTAC: SMARCA2^BD ternary complex (Q15370 1-104 partner): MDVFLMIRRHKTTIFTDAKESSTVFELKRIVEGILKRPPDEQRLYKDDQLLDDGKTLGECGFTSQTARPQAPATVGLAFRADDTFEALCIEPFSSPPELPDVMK

SMARCA2 = SMARCA2 (Homo sapiens, UniProt P51531); assay: Imaging-based SMARCA2 protein assay in RKO cells; type: cell-based; design: endogenous in cells; host or cells: RKO, NCI-H1568, A549, HCT116, LU99, HCC-364, HCT-15, HCC4006, SK-N-AS; conditions: individual replicates
Sequence of SMARCA2 (P51531 whole entry): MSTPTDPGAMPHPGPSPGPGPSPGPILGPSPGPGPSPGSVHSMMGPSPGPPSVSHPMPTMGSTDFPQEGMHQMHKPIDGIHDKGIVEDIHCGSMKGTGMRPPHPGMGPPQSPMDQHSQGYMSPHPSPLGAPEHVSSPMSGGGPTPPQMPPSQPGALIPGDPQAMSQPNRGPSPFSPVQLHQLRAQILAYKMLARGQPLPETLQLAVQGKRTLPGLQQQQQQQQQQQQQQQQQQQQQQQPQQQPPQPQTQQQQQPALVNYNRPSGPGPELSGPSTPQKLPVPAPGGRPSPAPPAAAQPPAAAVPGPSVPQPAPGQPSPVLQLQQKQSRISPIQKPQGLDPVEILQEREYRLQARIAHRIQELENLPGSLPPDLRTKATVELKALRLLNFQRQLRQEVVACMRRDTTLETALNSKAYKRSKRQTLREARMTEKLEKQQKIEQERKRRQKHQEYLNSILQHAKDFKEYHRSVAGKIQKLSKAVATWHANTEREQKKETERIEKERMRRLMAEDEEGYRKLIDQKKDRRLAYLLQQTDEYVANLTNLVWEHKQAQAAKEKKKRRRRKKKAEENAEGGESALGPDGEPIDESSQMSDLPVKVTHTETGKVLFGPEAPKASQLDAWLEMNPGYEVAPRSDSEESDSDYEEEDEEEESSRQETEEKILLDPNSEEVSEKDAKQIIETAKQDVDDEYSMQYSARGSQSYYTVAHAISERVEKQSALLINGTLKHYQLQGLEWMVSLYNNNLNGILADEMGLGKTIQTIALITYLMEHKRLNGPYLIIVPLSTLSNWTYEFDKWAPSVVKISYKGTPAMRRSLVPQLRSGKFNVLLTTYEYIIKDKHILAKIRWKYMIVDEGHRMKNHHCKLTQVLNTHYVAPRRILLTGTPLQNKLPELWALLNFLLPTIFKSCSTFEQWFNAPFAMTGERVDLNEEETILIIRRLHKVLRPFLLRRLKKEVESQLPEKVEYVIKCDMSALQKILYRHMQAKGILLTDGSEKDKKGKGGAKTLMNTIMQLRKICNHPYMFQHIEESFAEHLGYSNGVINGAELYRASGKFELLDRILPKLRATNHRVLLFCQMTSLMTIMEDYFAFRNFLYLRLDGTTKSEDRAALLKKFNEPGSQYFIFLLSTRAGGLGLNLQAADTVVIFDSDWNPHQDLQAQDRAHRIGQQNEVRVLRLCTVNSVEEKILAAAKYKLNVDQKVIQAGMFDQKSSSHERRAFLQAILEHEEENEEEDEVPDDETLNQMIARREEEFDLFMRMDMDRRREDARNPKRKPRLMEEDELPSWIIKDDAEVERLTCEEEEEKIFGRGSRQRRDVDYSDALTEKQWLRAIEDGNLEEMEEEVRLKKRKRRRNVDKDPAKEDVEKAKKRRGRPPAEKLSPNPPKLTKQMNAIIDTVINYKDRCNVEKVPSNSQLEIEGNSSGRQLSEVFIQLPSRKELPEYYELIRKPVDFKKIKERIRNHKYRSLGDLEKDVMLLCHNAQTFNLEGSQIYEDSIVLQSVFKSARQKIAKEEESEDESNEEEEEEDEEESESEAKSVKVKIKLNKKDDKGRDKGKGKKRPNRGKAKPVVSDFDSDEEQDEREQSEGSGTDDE
Method: 1250 cells per well in 60 µl medium were plated in flat bottom, poly-lysin coated 384-well plates (CellCarrier Ultra, Perkin Elmer). The next day, test compounds (10 µl of serial dilutions) and DMSO controls were diluted in DMEM medium such that the final DMSO content was <1% or were added using an ultrasound dispensing system. 4 wells were reserved for a background measurement. […] After aspirating the fixing solution, the cells were washed once with 25 µl PBS. 25 µl of blocking buffer (10% goat serum in PBS) was added and cells were incubated for 30 min, then washed once with PBS. […] Cells were again washed once with PBS. […] The cell layer was then washed once with 25 µl PBS, the wells were filled with 25 µl PBS and the plates were sealed with an adhesive sheet. They were then imaged on the Opera Phoenix (mean intensity in the nucleus). […] EC50 values were computed using a 4-parametric logistic model.

[2] = PROTAC + VCB, individual replicates, read-out: Ternary SMARCA2 BD EC50 (PROTAC + VCB)
[3] = TR-FRET competition for SMARCA2BD, + VCB, mean ± SD, read-out: TR-FRET Ternary SMARCA2BD EC50 (PROTAC + VCB)
[4] = 4h, read-out: RKO (4h) SMARCA2 DC50
[5] = 18h, read-out: RKO (18h) SMARCA2 DC50

SMILES	Kd (SMARCA4^BD; SMARCA4BD, mean ± SD)	Kd (SMARCA4^BD; individual replicates)	EC50 [1, 2]	EC50 [1, 3]	DC50 (SMARCA2; [4])	DC50 (SMARCA2; [5])
Cc1ncsc1-c1ccc([C@H](COCCCN2CCC(c3ccc4c(c3)n(C3CCCC3)c3nc(=O)c5c(Br)cccc5n43)CC2)NC(=O)[C@@H]2C[C@@H](O)CN2C(=O)[C@@H](NC(=O)C2(F)CC2)C(C)(C)C)cc1 [compound 27]	388 ± 96 nM	308 nM and 361 nM and 494 nM	29.5 nM and 30.9 nM and 30.6 nM and 24.4 nM and 46.9 nM and 21.2 nM and 34.9 nM and 23.9 nM	29 ± 8 nM	5.2 nM and 2.76 nM and 5.65 nM and 7.65 nM	1.7 nM and 2.99 nM and 2.34 nM
Cc1ncsc1-c1ccc(CNC(=O)[C@@H]2C[C@H](O)CN2C(=O)[C@@H](NC(=O)C2(F)CC2)C(C)(C)C)c(OCCN2CCC(c3ccc4c(c3)n(C3CCCC3)c3nc(=O)c5c(Br)cccc5n43)CC2)c1 [compound 19]	138 ± 43 nM	98.2 nM and 132 nM and 183 nM	69.1 nM and 75.9 nM and 70.4 nM	72 ± 3 nM	> 25000 nM	> 25000 nM
Cc1ncsc1-c1ccc([C@H](CC[C@@H](C)CCN2CCC(c3ccc4c(c3)n(C3CCCC3)c3nc(=O)c5c(Br)cccc5n43)CC2)NC(=O)[C@@H]2C[C@@H](O)CN2C(=O)[C@@H](NC(=O)C2(F)CC2)C(C)(C)C)cc1 [compound 29]	397 ± 49 nM	347 nM and 400 nM	29.4 nM and 32.4 nM and 32.3 nM and 32.6 nM	32 ± 2 nM	1.56 nM and 2.15 nM and 1.32 nM and 3.46 nM	0.877 nM and 0.998 nM and 0.942 nM and 0.753 nM
Cc1ncsc1-c1ccc([C@H](COC(C)CN2CCC(c3ccc4c(c3)n(C3CCCC3)c3nc(=O)c5c(Br)cccc5n43)CC2)NC(=O)[C@@H]2C[C@@H](O)CN2C(=O)[C@@H](NC(=O)C2(N(C)C)CC2)C(C)(C)C)cc1 (stereo partly drawn) [compound 10]	381 ± 28 nM	359 nM and 413 nM and 372 nM	13.9 nM and 16.3 nM and 16.6 nM and 37.3 nM and 12.6 nM and 9.3 nM and 12.5 nM	15 ± 9 nM	8.19 nM and 6.54 nM and 2.93 nM and 10.6 nM	1.26 nM and 3.06 nM and 6.17 nM
Cc1ncsc1-c1ccc([C@H](CCCCN2CCC(c3ccc4c(c3)n(C3CCCC3)c3nc(=O)c5c(Br)cccc5n43)CC2)NC(=O)[C@@H]2C[C@@H](O)CN2C(=O)[C@@H](NC(=O)C2(F)CC2)C(C)(C)C)cc1 [compound 25]	153 ± 10 nM	142 nM and 157 nM and 161 nM	208 nM and 27.9 nM and 62.3 nM and 29 nM and 29.1 nM and 33.2 nM and 38.8 nM and 39.9 nM and 50.6 nM and 51.7 nM and 46 nM and 34.5 nM and 27.1 nM	43 ± 48 nM	4.26 nM and 1.82 nM and 3.89 nM and 3.46 nM	2 nM and 2.63 nM and 3.33 nM
CN1CCN(c2nc(=O)c3c(F)cccc3o2)CC1 [compound 17]	–	–	> 10000 nM	–	> 25000 nM	> 25000 nM
